Source: patent US12667559B2, “Dihydronaphthyridinone compound, and preparation method therefor and medical use thereof” (GENFLEET THERAPEUTICS (SHANGHAI) INC., priority 2020, dated 2026)
Read-outs that look alike come from different tables or passages of the source.

System: U937 cells
Test: Inhibitory activity against TNF-α induced programmed cell necrosis (U937 cells, CellTiter-Glo)
Format: cell-based, human
Conditions: read-out: U937 IC50
[1] = Homo sapiens, U-937, 48 h, U937 cells, human TNF-α and Q-VD-Oph induced necrosis, 48 hours, survival rate
[2] = U-937, U937 cells, human TNF-α and Q-VD-Oph induced necrosis, 48 hours, survival rate
[3] = U937 cells, human TNF-α and Q-VD-Oph induced necrosis, 48 hours, survival rate

Structure (SMILES) | IC50 [1] [nM] | also measured
Cc1cc(-c2cnc3c(c2)C(=O)N(c2cnn(C(C)c4ccc(F)cc4)c2)CC3)n2ncnc(N)c12 (centres unmarked) [Z97] | 0.2 | –
CC(c1ccc(F)cc1)n1cc(N2CCc3ncc(-c4cc(C(F)(F)F)c5c(N)ncnn45)cc3C2=O)cn1 (centres unmarked) [Z35] | 0.3 | –
Cc1nc2c(cc1-c1ccn3nc(N)nc3c1)C(=O)N(Cc1cc(OC(F)(F)F)ccc1F)CC2 [Z57, 3-(2-amino-[1,2,4]triazolo[1,5-a]pyridyl-7-yl)-6-(2-fluoro-5-(trifluoromethoxy)benzyl)-2-methyl-7,8-dihydro-1,6-naphthyridin-5(6H)-one] | 2 | –
CC(=O)Nc1cn2nc(-c3cnc4c(c3)C(=O)N(Cc3cc(F)ccc3OC3CCCC3)CC4)ccc2n1 [Z6, N-(6-(6-(2-(cyclopentyloxy)-5-fluorobenzyl)-5-oxo-5,6,7,8-tetrahydro-1,6-naphthyridin-3-yl)imidazol[1,2-b]pyridazin-2-yl)acetamide] | 0.4 | –
Nc1nc2cc(-c3cnc4c(c3)C(=O)N(Cc3ncccc3OC3CCOCC3)CC4)ccn2n1 [Z62, 3-(2-amino-[1,2,4]triazolo[1,5-a]pyridin-7-yl)-6-((3-((tetrahydro-2H-pyran-4-yl)oxy)pyridin-2-yl)methyl)-7,8-dihydro-1,6-naphthyridin-5(6H)-one] | – | IC50 [2]: 13 nM
CC(=O)Nc1nc2cc(-c3cnc4c(c3)C(=O)N(C(C)c3ccccc3OC(F)(F)F)CC4)ccn2n1 (centres unmarked) [Z49, N-(7-(5-oxo-6-(1-(2-(trifluoromethoxy)phenyl)ethyl)-5,6,7,8-tetrahydro-1,6-naphthyridin-3-yl)-[1,2,4]triazolo[1,5-a]pyridyl-2-yl)acetamide] | – | IC50 [3]: 26 nM
Nc1nc2cc(-c3cnc4c(c3)C(=O)N(Cc3cc(F)ccc3OC3CC3)CC4)ccn2n1 [Z76] | 4.1 | –
Nc1nc2cc(-c3cc4c(nc3Cl)CCN(Cc3cc(OC(F)(F)F)ccc3F)C4=O)ccn2n1 [Z56, 3-(2-amino-[1,2,4]triazolo[1,5-a]pyridyl-7-yl)-2-chloro-6-(2-fluoro-5-(trifluoromethoxy)benzyl)-7,8-dihydro-1,6-naphthyridin-5(6H)-one] | – | IC50 [3]: 4 nM
Cc1cc(-c2cnc3c(c2)C(=O)N([C@@H]2CN(C(=O)[C@@](C)(O)C(F)(F)F)C[C@@H]2F)CC3)n2ncnc(N)c12 (single isomer, unassigned) [Z30-2] | – | IC50 [3]: 3.4 nM
CC(c1cc(F)ccc1-c1cnn(C)c1)N1CCc2ncc(-c3ccn4nc(N)nc4c3)cc2C1=O (centres unmarked) [Z80, 3-(2-amino-[1,2,4]triazolo[1,5-a]pyridyl-7-yl)-6-(1-(5-fluoro-2-(1-methyl-1H-pyrazol-4-yl)phenyl)ethyl)-7,8-dihydro-1,6-naphthyridin-5(6H)-one] | – | IC50 [3]: 19.8 nM
Nc1nc2cc(-c3cnc4c(c3)C(=O)N(Cc3cc(F)cc(F)c3OC3CCOCC3)CC4)ccn2n1 [Z70] | 0.4 | –
Nc1nc2cc(-c3cnc4c(c3)C(=O)N(Cc3cc(OC(F)(F)F)ccc3F)CC4)ccn2n1 [Z48, 3-(2-amino-[1,2,4]triazolo[1,5-a]pyridyl-7-yl)-6-(2-fluoro-5-(trifluoromethoxy)benzyl)-7,8-dihydro-1,6-naphthyridin-5(6H)-one] | – | IC50 [2]: 6 nM
CC(=O)Nc1cn2nc(-c3cnc4c(c3)C(=O)N(Cc3cc(F)ccc3OC3CCOCC3)CC4)ccc2n1 [Z21, N-(6-(6-(5-fluoro-2-((tetrahydro-2H-pyran-4-yl)oxy)benzyl)-5-oxo-5,6,7,8-tetrahydro-1,6-naphthyridin-3-yl)imidazo[1,2-b]pyridazin-2-yl)acetamide] | – | IC50 (Homo sapiens, U-937, 48 h): 0.6 nM
Nc1nc2cc(-c3cnc4c(c3)C(=O)N(Cc3cc(OC(F)(F)F)ccc3F)CC4)ccc2o1 [Z17, 3-(2-aminobenzo[d]oxazol-5-yl)-6-(2-fluoro-5-(trifluoromethoxy)benzyl)-7,8-dihydro-1,6-naphthyridin-5(6H)-one] | – | IC50 [2]: 57.5 nM
O=C1c2cc(-c3ccncc3)cnc2CCN1Cc1cc(F)cc(F)c1OC1CCOCC1 [Z11, 6-(3,5-difluoro-2-((tetrahydro-2H-pyran-4-yl)oxy)benzyl)-3-(pyridin-4-yl)-7,8-dihydro-1,6-naphthyridin-5(6H)-one] | 31.2 | –
CC(=O)Nc1cn2nc(-c3cnc4c(c3)C(=O)N(Cc3cc(F)ccc3-c3cnn(C)c3)CC4)ccc2n1 [Z23, N-(6-(6-(5-fluoro-2-(1-methyl-1H-pyrazol-4-yl)benzyl)-5-oxo-5,6,7,8-tetrahydro-1,6-naphthyridin-3-yl)imidazo[1,2-b]pyridazin-2-yl)acetamide] | – | IC50 [2]: 24.3 nM
C[C@H](c1ccccc1OC(F)(F)F)N1CCc2ncc(-c3ccn4nc(N)nc4c3)cc2C1=O [Z46-2, (R)-3-(2-amino-[1,2,4]triazolo[1,5-a]pyridyl-7-yl)-6-(1-(2-(trifluoromethoxy)phenyl)ethyl)-7,8-dihydro-1,6-naphthyridin-5(6H)-one] | 986 | –
Nc1nc2cc(-c3cnc4c(c3)C(=O)N(Cc3cc(F)ccc3OC3CCOC3)CC4)ccn2n1 (centres unmarked) [Z66] | 2.3 | –
C[C@@H](c1ccc(F)cc1)n1cc(N2CCc3ncc(-c4cc(C(F)(F)F)c5c(N)ncnn45)cc3C2=O)cn1 (single isomer, unassigned) [Z35-2] | 0.2 | –

Structure (SMILES) | IC50 [1] [nM] | also measured
Nc1nc2cc(-c3cnc4c(c3)C(=O)N(Cc3ccccc3OC3CC3)CC4)ccn2n1 [Z68] | 4.3 | –
CC(=O)Nc1cn2nc(-c3cnc4c(c3)C(=O)N(Cc3cc(F)cc(F)c3OC3CCOC3)CC4)ccc2n1 (centres unmarked) [Z3, N-(6-(6-(3,5-difluoro-2-((tetrahydrofuran-3-yl)oxy)benzyl)-5-oxo-5,6,7,8-tetrahydro-1,6-naphthyridin-3-yl)imidazo[1,2-b]pyridazin-2-yl)acetamide] | 1.4 | –
Nc1ncnn2c(-c3cnc4c(c3)C(=O)N(Cc3cc(OC(F)(F)F)ccc3F)CC4)cc(C(F)(F)F)c12 [Z24, 3-(4-amino-5-(trifluoromethyl)pyrrolo[2,1-f][1,2,4]triazin-7-yl)-6-(2-fluoro-5-(trifluoromethoxy)benzyl)-7,8-dihydro-1,6-naphthyridin-5(6H)-one] | – | IC50 [2]: 36.5 nM
CC(=O)Nc1cn2nc(-c3cnc4c(c3)C(=O)N(Cc3ncccc3OC3CCOCC3)CC4)ccc2n1 [Z28, N-(6-(5-oxo-6-((3-((tetrahydro-2H-pyran-4-yl)oxy)pyridyl-2-yl)methyl)-5,6,7,8-tetrahydro-1,6-naphthyridin-3-yl)imidazo[1,2-b]pyridazin-2-yl)acetamide] | – | IC50 [3]: 12.7 nM
Nc1nc2cc(-c3cnc4c(c3)C(=O)N(Cc3ccccc3OC(F)(F)F)CC4)ccn2n1 [Z44, 3-(2-amino-[1,2,4]triazolo[1,5-a]pyridyl-7-yl)-6-(2-(trifluoromethoxy)benzyl)-7,8-dihydro-1,6-naphthyridin-5(6H)-one] | – | IC50 [2]: 42 nM
Cn1c(N)nc2ccc(-c3cnc4c(c3)C(=O)N(Cc3cc(OC(F)(F)F)ccc3F)CC4)cc21 [Z14, 3-(2-amino-1-methyl-1H-benzo[d]imidazol-6-yl)-6-(2-fluoro-5-(trifluoromethoxy)benzyl)-7,8-dihydro-1,6-naphthyridin-5(6H)-one] | – | IC50 (Homo sapiens, U-937, 48 h): 10.2 nM
Nc1nc2cc(-c3cnc4c(c3)C(=O)N(Cc3cc(F)ccc3OC(F)(F)F)CC4)ccn2n1 [Z102, 3-(2-amino-[1,2,4]triazolo[1,5-a]pyridyl-7-yl)-6-(5-fluoro-2-(trifluoromethoxy)benzyl)-7,8-dihydro-1,6-naphthyridin-5(6H)-one] | 21.1 | –
CC(c1cc(F)ccc1OC(F)(F)F)N1CCc2ncc(-c3ccn4nc(N)nc4c3)cc2C1=O (centres unmarked) [Z55, 3-(2-amino-[1,2,4]triazolo[1,5-a]pyridyl-7-yl)-6-(1-(5-fluoro-2-(trifluoromethoxy)phenyl)ethyl)-7,8-dihydro-1,6-naphthyridin-5(6H)-one] | – | IC50 [2]: 8 nM
CC(c1ccc(F)cc1)n1cc(N2CCc3ncc(-c4ccn5nc(N)nc5c4)cc3C2=O)cn1 (centres unmarked) [Z64] | – | IC50 [3]: 2 nM
C[C@@H](c1ccccc1OC(F)(F)F)N1CCc2ncc(-c3ccn4nc(N)nc4c3)cc2C1=O [Z46-1, (S)-3-(2-amino-[1,2,4]triazolo[1,5-a]pyridyl-7-yl)-6-(1-(2-(trifluoromethoxy)phenyl)ethyl)-7,8-dihydro-1,6-naphthyridin-5(6H)-one] | 7.4 | –
Nc1nc2cc(-c3cnc4c(c3)C(=O)N(Cc3cc(F)ccc3OC3CCOCC3)CC4)ccn2n1 [Z65] | 0.5 | –
Nc1nc2ccc(-c3cnc4c(c3)C(=O)N(Cc3cc(OC(F)(F)F)ccc3F)CC4)cc2o1 [Z16, 3-(2-aminobenzo[d]oxazol-6-yl)-6-(2-fluoro-5-(trifluoromethoxy)benzyl)-7,8-dihydro-1,6-naphthyridin-5(6H)-one] | – | IC50 [2]: 10.7 nM
C[C@@](O)(C(=O)N1C[C@@H](F)[C@@H](N2CCc3ncc(-c4ccc5c(N)ncnn45)cc3C2=O)C1)C(F)(F)F [Z31-1] | 7.4 | –
C[C@@](O)(C(=O)N1CC[C@H](N2CCc3ncc(-c4cc(C(F)(F)F)c5c(N)ncnn45)cc3C2=O)C1)C(F)(F)F [Z32] | 26.8 | –
CC(c1ccccc1OC(F)(F)F)N1CCc2ncc(-c3ccn4nc(N)nc4c3)cc2C1=O (centres unmarked) [Z46, 3-(2-amino-[1,2,4]triazolo[1,5-a]pyridyl-7-yl)-6-(1-(2-(trifluoromethoxy)phenyl)ethyl)-7,8-dihydro-1,6-naphthyridin-5(6H)-one] | – | IC50 [2]: 7 nM
CC(=O)Nc1cn2nc(-c3cnc4c(c3)C(=O)N(c3cnn(C(C)c5ccc(F)cc5)c3)CC4)ccc2n1 (centres unmarked) [Z1] | 2.8 | –
C[C@@](O)(C(=O)N1C[C@@H](N2CCc3ncc(-c4ccc5c(N)ncnn45)cc3C2=O)[C@@H](F)C1)C(F)(F)F [Z31, cis-3-(4-aminopyrrolo[2,1-f][1,2,4]triazin-7-yl)-6-(4-fluoro-1-((R)-3,3,3-trifluoro-2-hydroxy-2-methylpropionyl)pyrrolidin-3-yl)-7,8-dihydro-1,6-naphthyridin-5(6H)-one] | 18.2 | –
C[C@H](c1ccc(F)cc1)n1cc(N2CCc3ncc(-c4cc(C(F)(F)F)c5c(N)ncnn45)cc3C2=O)cn1 (single isomer, unassigned) [Z35-1] | 0.3 | –
C[C@@](O)(C(=O)N1C[C@@H](N2CCc3ncc(-c4cc(C(F)(F)F)c5c(N)ncnn45)cc3C2=O)[C@@H](F)C1)C(F)(F)F (single isomer, unassigned) [Z27-2] | – | IC50 [3]: 1.9 nM
